Values of other authors as cited in patent US20170079478A1, “NITROUS OXIDE MIXTURES AND METHODS OF USE” (KORVATA INC., priority 2014, published 2017).
Where two headings read alike, the source gives them in different places.

Columns and labels:
[1] = compared with nitrogen standardized to 1.0

Row | SMILES | lipid solubility (0° C. and 15 psi) | lipid solubility (20° C. and 15 psi) | RNP (Relative Narcotic Potency) [1]
1 | [Ar] [Ar, argon] | 300 µg/mL | 250 µg/mL | 2.3
2 | [N-]=[N+]=O [Example N2O, nitrous oxide] | – | – | 39
3 | [He] [He, helium] | – | – | 0.045
4 | [Kr] [Kr, krypton] | – | – | 7.1
5 | [Ne] [Ne, neon] | – | – | 0.3
6 | [Xe] [Xe, xenon] | – | – | 25.6
